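Results reflect a 48-hour exposure of cells in 96-well plates to compound at five concentrations. Here, GI50 denotes the concentration required for 50% inhibition of growth. TGI: concentration producing complete growth inhibition.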 Bounds are passed on as bounds.

This note sets out measurements from PubChem BioAssay (NCI).

Assay in all cases: NCI-60 cell line screen, 48 h
Experiment [1] has as its system HOP-62 NSCLC.
The test system of experiment [2] is CAKI-1 renal.
Experiment [3] concerns SK-OV-3 ovarian.
Experiment [4] has as its system UACC-257 melanoma.
Experiment [5] deals with KM12 colon.
Experiment [6] relates to RPMI-8226 leukemia.
For experiment [7], the system named is OVCAR-3 ovarian.
Experiment [8] deals with NCI/ADR-RES ovarian.
In experiment [9] the test system is SK-MEL-2 melanoma.
Experiment [10] relates to SW-620 colon.

Take `COc1cc(OC)cc(-c2n/c(=C\c3c(O)[nH]c4ccc(OC)cc34)cc3c2=Nc2ccccc2-3)c1`: the GI50 is 15.6 µM in experiment [1]; greater than 100 µM in experiment [2]; 25.8 µM in experiment [3]; 23.3 µM in experiment [4]; 2.58 µM in experiment [5]; 8.88 µM in [6]. For the same molecule, the GI50 is 3.45 µM in experiment [7], 3.66 µM in [8], 20.8 µM in [9] and 3.92 µM in [10]. The TGI in [1] was 34.1 µM; in experiment [2], greater than 100 µM; in [3], 53.3 µM; in experiment [4], 49.8 µM; in [5] it was 6.21 µM; in experiment [6], 72.7 µM. The TGI stood at 9.67 µM in experiment [7], 18.7 µM in [8], 37.3 µM in [9] and 22.4 µM in experiment [10].

In the case of `NC(CCOCCP(=O)(O)O)C(=O)O` (stereo unspecified), the TGI in experiment [2], in [3], in experiment [4], in experiment [5], in experiment [6] and in [7] was greater than 100 µM in each case. Further, the TGI in [8], in experiment [9] and in experiment [10] was greater than 100 µM in each case.

As to `COc1c2c(c3ccccc3c1O)C1C=CC2C1` (stereo unspecified), the TGI in experiment [1] was 29.7 µM; in experiment [2], 30.8 µM; in experiment [5], 31.4 µM; in experiment [6] it was greater than 100 µM; in experiment [7], 27.6 µM; in experiment [9], 31.5 µM. Also, the TGI in experiment [10] is 34.3 µM.

As for `O=C(N/N=C\c1ccc(N(CCCl)CCCl)cc1[N+](=O)[O-])c1cccnc1`, the GI50 in experiment [1], in [2], in experiment [4], in [5], in experiment [6] and in experiment [7] was greater than 100 µM in each case. Also, the GI50 in experiment [8], in [9] and in experiment [10] was greater than 100 µM in each case. Further, the TGI in experiment [1], in [2], in experiment [4], in experiment [5], in [6] and in experiment [7] was greater than 100 µM throughout. Further, the TGI in experiment [8], in experiment [9] and in experiment [10] was greater than 100 µM each time.

For the molecule `CCN(CC)CCN1C(=O)c2c(c3c4ccccc4[nH]c3c3ccc4ccccc4c23)C1=O`, the GI50 is 1.43 µM in experiment [2]; 1.57 µM in experiment [3]; 1.73 µM in [4]; 1.74 µM in experiment [5]; 2.01 µM in experiment [6]; 1.65 µM in experiment [7]. Moreover, the GI50 in [8] was 1.59 µM; in experiment [9], 2.51 µM; in [10], 1.31 µM. For the same molecule, the TGI in experiment [2] stood at 2.87 µM; in experiment [3], 3.01 µM; in [4], 3.27 µM; in experiment [5], 3.22 µM; in [6], 5.65 µM; in experiment [7], 3.03 µM. Further, the TGI in experiment [8] is 4.15 µM; in experiment [9], 6.5 µM; in experiment [10], 2.97 µM.

For `COC1=CC(=O)CC(C)C12Oc1c(Cl)c(OC)cc(OC)c1C2=O` (stereo unspecified), the TGI in experiment [1] was greater than 100 µM; in experiment [2] it was 84.9 µM; in [3] it was greater than 100 µM; in experiment [4], greater than 100 µM; in experiment [5], greater than 100 µM; in experiment [6] it was greater than 100 µM. Also, the TGI in [7] is greater than 100 µM; in experiment [8], greater than 76.4 µM; in experiment [9], greater than 100 µM; in experiment [10] it was greater than 100 µM.

As for `C=C1C(=O)O[C@@H]2[C@H](O)[C@@H](C)[C@@H]3C=CC(=O)[C@@]3(C)[C@@H](OC(=O)/C(C)=C/C)[C@H]12`, the TGI stood at 15.3 µM in experiment [1]; 2.02 µM in [2]; 14.1 µM in [3]; 1.87 µM in experiment [4]; 7.21 µM in experiment [5]; 0.473 µM in experiment [6]. The TGI turned out to be 1.69 µM in experiment [7], 5.39 µM in experiment [8], 2.78 µM in experiment [9] and 1.14 µM in experiment [10].

As for `Cc1ccc(C2=C(C#N)C(N)OC3=C2COc2ccccc23)cc1` (stereo unspecified), the TGI in experiment [1] was 34.9 µM; in experiment [3] it was 67.9 µM; in [4] it was greater than 100 µM; in experiment [5], greater than 100 µM; in [6] it was greater than 100 µM; in experiment [7], 41.9 µM. Besides, the TGI in [8], in experiment [9] and in [10] was greater than 100 µM throughout.
